# Read-outs that look alike come from different tables or passages of the source. Square brackets hold non-standard residues; d marks the D form. Ends that are not written are not given here. Peptide text beside a SMILES is read from it. d2Nal = N[C@H](Cc1ccc2ccccc2c1)C(=O)O; Aib = CC(C)(N)C(=O)O
# Tests used:
# [1] = tested on: rat model of post-operative ileus; assay: Gastric emptying (phenol red) after i.v. injection, ipamorelin compared to RC-1139, rat model of post-operative ileus (Example 5); type: in vivo; conditions: 10 mg/kg i.v.; for lethality: n = 2
# Procedure: Ipamorelin was evaluated in a rat model of post-operative ileus in comparison to RC-1139, a ghrelin mimetic with known gastrokinetic efficacy. Treatment groups were as follows.
# All animals were examined twice daily for mortality and signs of ill health or reaction to treatment (except on the day of arrival and necropsy when the animals were examined once). Individual body weights were measured at randomization and on the day prior to dosing (for dose calculation purposes only).
# All treatment procedures were replicated over two consecutive days with approximately equal numbers of animals from each group treated on each day. Food was withdrawn from animals overnight prior to surgery. On the day of surgery animals were anesthetized with isoflurane gas and a bland ophthalmic lubricant was applied to each eye. The animals were prepared for surgery by shaving of the entire abdominal region. The shaved area was cleaned and disinfected appropriately prior to incision. Using a scalpel blade, the abdomen was opened and the cecum localized. The cecum was exteriorized and manipulated for approximately one minute (i.e. gently patted between hands in saline-soaked gauze). Thereafter, the cecum was repositioned and the surgical site closed using absorbable suture material (interrupted sutures) and staples. Animals were then returned to their home cage to permit recovery from the anesthesia.
# Animals were dosed immediately following the oral gavage dose of phenol red. The test/control articles and reference article were administered by intravenous injection (given as a slow bolus injection over a period of ca. 100 seconds) into the tail vein using a syringe and appropriate gauge needle. The dose volume was 5 mL/kg and the actual dose administered was based on the most recent body weight of each animal.
# Prior to dosing of the phenol red, the animals were water deprived. At approximately 30 minutes post-surgery, animals received 0.4 mL of phenol red by oral gavage, then dosed with the test article, and then, approximately 30 minutes later, were euthanized. […]
# Half-life in humans = type: in vivo
# [2] = Prior Phase 1 studies, safety and tolerability; type: in vivo, humans; conditions: 0.06 mg/kg IV infused over 15 minutes
# Procedure: Ipamorelin was formulated as a 0.5 mg/mL sterile solution with 2 equivalents of acetic acid in normal saline. The sterile solution was further diluted with normal saline to an appropriate volume for administration prior to use.
# [3] = Johansen et al. 1998; cited from earlier work
# [4] = tested on: gastrointestinal motility in rats; assay: Gastrointestinal motility in rats by charcoal transit, 0.25 mg/kg i.v. (Example 8); type: in vivo, rat; conditions: for reduction of the amount of charcoal remaining in the stomach relative to the control group: 0.25 mg/kg i.v.
# Procedure: The objective of this study was to evaluate the pharmacological effects of a series of ghrelin mimetics on gastrointestinal motility in rats, as measured by charcoal transit, relative to a commonly used prokinetic agent, metoclopramide, and control, following a single intravenous infusion of the experimental agent. Each dosing formulation was prepared on the day of dosing. […] The reference article formulations were also prepared on the day of dosing by mixing the appropriate amount of reference article with the appropriate volume of vehicle to achieve the desired final concentration. The saline and metoclopramide (1 mg/mL) were used as supplied. Dosing was performed on consecutive days with approximately equal numbers of animals being dosed on each day. The animals were deprived of food overnight prior to treatment. Each formulation was administered by intravenous injection into the tail vein using a syringe and appropriate gauge needle. The dose volume was 5 mL/kg or 10 mL/kg (in the case of metoclopramide only). […] Following the observation period the rats were euthanized, the abdominal cavity opened, and the stomach and intestines removed. The presence or absence of charcoal was documented. The stomachs were weighed (with or without contents) to give an indication of gastric emptying. The intestines were opened and extended to their full length. The charcoal was located and the distances from the pyloric sphincter to the most proximal and distal traces of charcoal were measured as was the total distance from the pyloric sphincter to the cecum. Also, the distance traveled by the charcoal as a percentage of the total length of the small intestine was measured.
# [5] = tested on: morphine-induced gastric ileus in rats; assay: Morphine-induced gastric ileus in rats, phenol red gastric emptying (Example 4); type: in vivo, rat
# Procedure: Treatment groups were set up as follows.
# The dose volume was 0.1 mL/kg for Groups 2 and 3 and 0.4 mL/kg for Groups 4 and 5. The actual dose administered was based on the most recent practical body weight of each animal.
# Approximately 30 minutes following administration of control or test article, the rats were euthanized. The stomach was then exposed by laparotomy, quickly ligated at the pylorus and the cardia and removed. The stomach was cut open and its contents extracted with 100 mL of 0.1N NaOH. The phenol red content of this extract was assayed […] at 558 nm in a spectrophotometer. Following collection, samples were stored on wet ice pending transfer for analysis.
# [6] = tested on: gastrointestinal motility in rats; assay: Gastrointestinal motility in rats by charcoal transit, equimolar i.v. dose (Example 9); type: in vivo, rat; conditions: single intravenous dose of 75 μmoles/kg
# Text: The objective of this study was to evaluate the pharmacological effects of a series of ghrelin mimetics on gastrointestinal motility in rats, as measured by charcoal transit, relative to control, following a single intravenous infusion of the experimental agent.
# Dosing commenced on consecutive days with approximately equal numbers of animals from each group being dosed on each day. The animals were food deprived overnight prior to treatment. Prior to dosing, the animals were water deprived. The test/reference/positive control articles were administered by intravenous injection into the tail vein using a syringe and appropriate gauge needle. […]
# At the end of the observation period, the rats were euthanized and the abdominal cavity was opened and the stomach and intestines were removed. […] The stomachs were weighed (with and without contents) and this was recorded to give an indication of gastric emptying. […] The charcoal was located and the distances from the pyloric sphincter to the most proximal and distal traces of charcoal were measured and recorded, as well as the total distance from the pyloric sphincter to the cecum (all distances were measured in mm). In addition to the stomachs weights (with and without contents) the distance traveled by the charcoal as a percentage of the total length of the small intestine was recorded to give an indication of the gastric emptying. […]
# rat model of POI = assay: Rat model of POI (running of the bowel), single dose (Example 10, series 1); type: in vivo
# Text: Animals: Adult male Sprague-Dawley rats with indwelling catheters implanted in the right jugular vein were obtained from Charles River (Wilmington, Mass.). The initial body weight of the animals was 250-270 g. The catheters were maintained patent during the acclimation and were used for the dosing of ipamorelin or vehicle. An additional group of control rats, not subjected to surgery and drug or vehicle treatment, were purchased with an indwelling catheter implanted into the proximal colon (1-2 cm from the cecum) used for infusion of a dye marker measuring colonic transit. All rats were single-housed under controlled conditions (25° C., 12 h light/dark cycle) with free access to food and water. An acclimation period of at least one week was allowed prior to the experiments. • Induction of post-operative ileus (POI): POI was induced by a surgical procedure described as “running of the bowel” (Kalff et al., 1998). Specifically, rats were anesthetized with isoflurane (2-3%) inhalation, the abdomen was shaved, disinfected and a midline incision was made to expose the viscera. The small intestine and the cecum were exteriorized and inspected for 5 min using cotton applicators soaked in sterile saline. After completing the inspection, the intestine was covered with gauze soaked in saline and the abdomen remained open for additional 10 min. To study colonic transit, 200 μl of a non-absorbable dye marker (trypan blue in saline) was injected into the proximal colon (1 cm distal to the cecum). The incision was then closed with silk sutures. The whole procedure lasted 25-30 min. Surgeries were always performed at 6:00-8:00 AM and the animals received ipamorelin or vehicle treatment during the light phase of the light/dark cycle. • Measurement of colonic transit time: Prior to the experiments, the rats were fasted for 20-22 h with free access to water. […] Colonic transit time was evaluated as the period between the end of surgery and the appearance of dye in the fecal pellet. […] The cumulative fecal output was evaluated by adding the number of pellets throughout a 48-h post-surgical period. Food intake was recorded at 3-h interval or 12-h intervals according to the experimental design and was normalized as g/100 g body weight. The cumulative food intake was calculated for 48 h post-surgery in both series of experiments. Body weight was measured daily at 8:00-9:00 AM before fasting the animals, on the day of experiment before the surgery and at 24 h and 48 h post-surgery. Changes in body weight are expressed as body weight gain compared to the weight of the fasted animal taken before the surgery. • Test and control articles: The test compound ipamorelin (free base) was converted to the diacetate salt by mixing with 2 molar equivalents of glacial acetic acid. […]
# [7] = cited from earlier work
# [8] = cited from earlier work; remark: listed apart in the source
# [9] = single dose i.v., first 48 h post-surgery
# [10] = 50 μg/kg i.v. after 1 mg/kg morphine
compound,measurement,setting,value
CN(C(=O)/C=C/CC(C)(C)N)[C@H](Cc1ccc(-c2ccccc2)cc1)C(=O)N(C)[C@H](Cc1ccccc1)C(=O)N1CCC(O)CC1 [RC-1139],stomach content of the phenol red marker lower than that of the control group,[1],approximately 16%
"CC(C)(N)C(=O)N[C@@H](Cc1c[nH]cn1)C(=O)N[C@H](Cc1ccc2ccccc2c1)C(=O)N[C@H](Cc1ccccc1)C(=O)N[C@@H](CCCCN)C(N)=O [ipamorelin, α-Methylalanine-L-histidine-D-β-(2-naphthyl)-alanine-D-phenylalanine-L-lysinamide] (H-[Aib]H[d2Nal][dF]K-NH2)",half-life in humans,Half-life in humans,approximately six
same,half-life,"Half-life in humans; human, serum",180 to 390 min
same,lethality,[1],Two animals died immediately
same,lethality,[1]; listed as Ipamorelin,*Lethality was observed immediately following administration of a 10 mg/kg dose (n = 2) and consequently the dose level was reduced to 0.25 mg/kg for all remaining animals in Group 4
same,safety and tolerability in prior Phase 1 studies,[2],safe and well-tolerated
same,half-life in the rat,[3],30 to 60 min
CCN(CC)CCNC(=O)c1cc(Cl)c(N)cc1OC [metoclopramide],increase of distal distance traveled by the charcoal meal versus control,[4]; 10 mg/kg i.v.,29%
same,stomach charcoal content versus control group,[4]; 10 mg/kg i.v.,not significantly different
same,distal distance traveled by the charcoal meal,"[4]; 10 mg/kg i.v., control group 67.3%",86.9%
CN1CC[C@]23c4c5ccc(O)c4O[C@H]2[C@@H](O)C=C[C@H]3[C@H]1C5 [morphine],reduction of stomach emptying compared to the control animals,[5]; 1 or 4 mg/kg subcutaneous,approximately 42%
GHRP-6,reduction of the amount of charcoal remaining in the stomach relative to the control group,[4],64%
same,"intestinal transit, proximal distance traveled by the charcoal from the pyloric sphincter",[6],resulted in gastric emptying by one of the two measures
same,body weight gain,rat model of POI; [9],neither ipamorelin nor GHRP-6 had a significant effect
same,fecal pellet output,rat model of POI; [9],neither ipamorelin nor GHRP-6 had a significant effect
same,food intake,rat model of POI; [9],neither ipamorelin nor GHRP-6 had a significant effect
same,colonic transit time,rat model of POI; single post-surgical dose of 20 μg i.v.,significantly decreased
same,serum half life,[7]; Bowers et al. 1992,20 min
"ghrelin: 28-amino acid peptide that is produced in the stomach; potent prokinetic peptide known to reverse gastric ileus (GSSFLSPEHQRVQQRKESKKPPAKLQPR; ends and bridges not checked; UniProt Q9UBU3 24-51, looked up)",acceleration of stomach emptying compared to animals treated with 1 mg/kg morphine and saline,[5]; [10],approximately 37%
same,reversal of the ileus induced,[5]; [10],approximately 11%
same,gastric emptying in rats administered 4 mg/kg of morphine,[5]; 50 μg/kg i.v. after 4 mg/kg morphine,did not accelerate gastric emptying
same,group mean absorbance of phenol red,"[5]; 50 μg/kg i.v. after 4 mg/kg morphine, saline group 2.99",3.01
same,reduction of the amount of charcoal remaining in the stomach relative to the control group,[4],57%
same,"intestinal transit, proximal distance traveled by the charcoal from the pyloric sphincter",[6],resulted in gastric emptying by one of the two measures
same,half-life in humans,[8],approximately 10 minutes
same,serum half-life,"[7]; biologically active (acylated) form, Akamizu et al. 2004",9 to 13 min
